Columns and labels:
[1] = tested on: serum IFN-γ, IL-12p70 and other cytokines; experiment: Serum cytokines (Luminex); type: in vivo, mouse
Experimental: Serum cytokines. […] 25 μl of sample was preincubated with serum diluent and incubated for 2 h with Beadmates coated with anti-cytokine mAbs. The fluid was then aspirated and the wells incubated for 1.5 h with biotin-conjugated anti-cytokine mAbs followed by 30 min incubation with Beadlyte streptavidin-PE secondary antibody. Samples were acquired in duplicate by Luminex and analyzed using Beadview software (Upstate).

J558 tumor cells = experiment: Tumor protection assay, J558 plasmacytoma; type: in vivo, mouse
Experimental: (§1) 2×10^7 irradiated J558-Ld^− cells, were injected i.v. or s.c. into Balb/c mice with or without α-Gal Cer as a DC maturation stimulus. In some experiments we compared α-Gal Cer to agonistic anti-CD40 mAb (1C10, 25 μg i.p.) or the toll like receptor ligands, poly IC ([…], Invivogen) or lipopolysaccharide (20 μgm, Sigma). The mice had been given CFSE-labeled PICTL CD8^+ T cells i.v. 1 d earlier, or were naive animals. In some experiments, mice were sacrificed 3 d later, and T cell division and activation in spleen were analyzed by flow cytometry. Additionally, 7 d or 2 months later, 5×10^6 live J558 tumor cells were inoculated subcutaneously. 5×10^6 Meth A fibrosarcoma was used as a control tumor for challenge. Tumor cell growth was measured with calipers every other day. Mice were scored positive for tumor as soon as tumors became palpable and grew progressively. Mice were euthanized when tumor size exceeded 400 mm^2.
Mice vaccinated with J558 and α-Gal Cer were injected with ascites containing 1 mg of rat monoclonal anti-CD4 (clone GK 1.5) or anti-CD8 (clone 53-6.72). The mice received three daily injections, the first one i.v. one day before the challenge, and two i.p. injections on the day of the challenge and one day after the challenge. Control mice received 1 mg of Rat IgG (Jackson Laboratories). The depletion was monitored by staining with anti-CD4 and anti-CD8 antibodies followed by flow cytometry (BD PharMingen).
In vivo delivery of dying tumor cells, DC maturation stimuli, and tumor protection assay. Different doses of irradiated J558-Ld− cells were injected i.v. into naïve BALB/c mice either alone or with αGalCer (2 or 0.2 μg/mouse) or 24 (2 or 0.2 μg/mouse) as a DC maturation stimulus. We also compared the glycolipids to agonistic anti-CD40 mAb (1C10, 25 μg, i.p.) or the Toll-like receptor ligands, poly IC (50 μg i.p., Invivogen). 14 d later, 5×10^6 live J558 tumor cells were inoculated s.c. Tumor cell growth was measured with calipers every other day. Mice were scored positive for tumor, as soon as tumors became palpable and grew progressively. Mice were euthanized when tumor size exceeded 400 mm^2.

[2] = tested on: allogeneic C57B1/6 or syngeneic T cells; experiment: Stimulation of the mixed leukocyte reaction (MLR) by DCs; type: cell-based, mouse
Experimental: Stimulation of the mixed leukocyte reaction (MLR) by DCs. Spleen DCs were isolated using anti-CD11c magnetic beads 8 h after administration of αGalCer, 24, or PBS. Graded numbers of spleen DCs from BALB/C mice were irradiated and cultured with 2×10^5 allogeneic C57B1/6 or syngeneic T cells, isolated using anti-CD4 coated magnetic beads (Miltenyi Biotech), in a 96-well flat-bottom plate for 88 h. During the final 16 h, ^3H-thymidine (1 μCi/well) was added.

[3] = tested on: human NKT cells (Vα24/Vβ11); experiment: Human dendritic cell mediated NKT cell expansion; type: cell-based; set-up: NKT cell expansion (Table 1): unit not given here
From the text: Human dendritic cell mediated NKT cell expansion. CD14+ monocytes were isolated from PBMC using anti-CD14 magnetic microbeads and cultured in the presence of GM-CSF and IL-4 to generate DCs, followed at day 5-6, by maturation in an inflammatory cytokine cocktail as described herein. To stimulate NKT cells, DCs were pulsed with α-GalCer and the tested analogs, and cultured with CD14− cells at a DC: responder ratio of 1:10. NKT cell expansion was monitored by flow cytometry based on the expression of the invariant NKT cell receptor (Vα24/Vβ11).

[4] = tested on: DCs from bone marrow progenitors; experiment: Direct DC maturation from bone marrow progenitors in culture; type: cell-based; details: data not shown
spleen CD11c+ DCs = experiment: DC maturation in vivo (surface markers, flow cytometry); set-up: species or system mouse
Experimental: as §1
T-cell division, phagocytosis of CFSE-labeled tumor cells and acquisition of cell surface-activation markers were determined by flow cytometry. Briefly, spleens were harvested and low-density splenocytes were stained with CD11c-APC and CD8α-PE, CD11b-PE, B220-PE or CD4-PE for the up-take examination. For in vivo proliferation of P1CTL T-cells, spleens were harvested and the splenocytes suspension was staining with CD8α-Cy, Vα8α-PE, CD25-PE, CD62L-PE. For intracellular cytokine staining, splenocytes were stimulated in vitro with 1 µg/ml P1A peptide in 5 μg/ml brefeldin A (Sigma-Aldrich) at 37° C. for 4 hrs. The cells were first stained with CD8α-Cy-Chrome™, fixed and permeabilized with cytofix-cytoperm buffer (BD Biosciences), and stained with PE conjugated mAbs to IL-2 or IFN-γ.
Flow cytometry. Acquisition of cell surface-activation markers was determined by flow cytometry. […] Spleen CD11c+ DCs were isolated using anti-CD11c magnetic beads and stained with CD11c-FITC, CD8α− allophycocyanin, and PE-Conjugated I-Ad, CD40, CD80, CD86, CD119, B7-H1 and B7-DC. We used a FACSCalibur™ with data analysis in FlowJo (Tree Star).

CCCCCCCCCCCCCCCCCCCCCCCCCC(=O)N[C@@H](CO[C@H]1O[C@H](CO)[C@H](O)[C@H](O)[C@H]1O)[C@H](O)[C@H](O)CCCCCCCCCCCCCC [α-GalCer, 2S,3S,4R-1-O(α-galactopyranosyl)-2(N-hexacosanoylamino)-1,3,4-octadecanetriol]
serum IL-12p70 ([1]; 0.02 μg, 15 h): ~50 pg/mL | serum IFNγ ([1]; 0.02 μg, 15 hours): ~100 pg/mL | serum IFN-γ, IL-12p70, IL-4, TNF-α and IL-2 response ([1]; 2 μg i.v., 2, 6, 12 and 24 h): induced rapid increases in serum IFN-γ, IL-12p70, IL-4, TNF-α and IL-2 concentrations | serum IFN-γ ([1]; 2 μg i.v., by 6 h): 6000 pg/mL | serum IL-12p70 ([1]; 2 μg i.v., by 6 h): ~600 pg/mL | serum IFN-γ ([1]; 2 μg i.v., by 12 h): ~1200 pg/mL | serum IL-12p70 ([1]; 2 μg i.v., by 12 h): ~200 pg/mL | serum IFN-γ and IL12p70 release in Jα281−/− mice ([1]; i.v. injection): lacked the ability to release IFN-γ and IL12p70 into the serum | protection from J558 tumor challenge (J558 tumor cells; 0.2 μg/mouse with 1×10^7 irradiated J558Ld− tumor cells i.v., challenge 14 days later): 100% | protection from J558 tumor challenge (J558 tumor cells; 2 μg/mouse with 1×10^7 irradiated J558Ld− tumor cells i.v., challenge 14 days later): 100% | mice fully protected after transfer of CD11c+ DCs (J558 tumor cells; 1.5×10^6 DCs from donors given dying J558− with α-Gal Cer, 10 of 17 mice): 58% | tumor immunity after depletion of CD4+ or CD8+ T cells (J558 tumor cells; 8 weeks after vaccination with J558 and α-Gal Cer): significantly abrogated tumor immunity | dependence of vaccination on route (J558 tumor cells; J558 and α-Gal Cer, i.v. vs s.c.): effective only when tumor cells were injected by the i.v. and not the s.c. route | specificity of protection (J558 vs Meth A challenge) (J558 tumor cells; dying J558− and α-Gal Cer): protected mice against a challenge of J558 but not Meth A cells | protection against MHC class I positive or negative J558 challenge (J558 tumor cells; dying MHC class I− J558 cells and α-Gal Cer): protected against the MHC class I^+ J558 cells but not to MHC class F J558 tumor cells | tumor immunity in Jα281−/− mice (lack NKT cells) (J558 tumor cells; dying cells plus glycolipid): failed to develop immunity | tumor growth after single agent alone (J558 tumor cells; glycolipid alone (2 or 0.2 μg/mouse) or irradiated cells alone, challenge 14 days later): grew progressively within 7-10 days | duration of tumor immunity (J558 tumor cells; single vaccination with irradiated J558 and α-Gal Cer, challenge 2 and 4 months later): long-lived tumor immunity | therapeutic effect (J558 tumor cells; vaccinated 3 days after injection of live tumor cells): therapeutic response manifest when the tumor dose was 1×10^6 but not 5×10^6 cells | mice protected and tumor-free after J558 challenge (J558 tumor cells; vaccination with irradiated J558− cells combined with α-Gal Cer i.v., 22 of 25 mice): 88% | protective immunity to irradiated tumor injected i.v. (adjuvant comparison) (J558 tumor cells; vs αCD40 and poly IC): only adjuvant that could independently induce protective immunity | protective immunity compared with anti-CD40, LPS and poly IC (J558 tumor cells; with irradiated J558− cells): more efficient at inducing protective immunity than the other compounds tested | tumor growth after glycolipid alone (J558 tumor cells; α-Gal Cer alone i.v., challenge 5×10^6 live J558 s.c.): grew progressively within 7-10 days | stimulation of allogeneic T cells (allo-MLR) by DCs from treated mice [2]: equally potent stimulators of the allo-MLR | stimulation of syngeneic T cells (syn-MLR) by DCs from treated mice [2]: no stimulatory activity in the syn-MLR | NKT cell expansion by loaded human DCs ([3]; DC to responder ratio 1:10): efficient inducers of NKT cell expansion in culture | NKT cell expansion (Table 1) ([3]; Donor 1): 3.55 | NKT cell expansion (Table 1) ([3]; Donor 2): 2.65 | NKT cell expansion (Table 1) ([3]; Donor 3): 1.53 | NKT cell expansion (Table 1) ([3]; Donor 4): 3.55 | direct stimulation of DC maturation [4]: unable to directly stimulate DC maturation from bone marrow progenitors in culture | dose dependence of DC maturation (spleen CD11c+ DCs; 2, 0.2, 0.02 and 0.002 μg/mouse): correlated with the dose of glycolipid administered | DC maturation response compared with αCD40 mAb and polyIC (spleen CD11c+ DCs; 15 h following i.v. administration): paralleled and exceeded those seen with other known stimuli for DC maturation in vivo | surface markers on CD11c+CD8− DCs (spleen CD11c+ DCs; 15 hours after i.v. glycolipid): induced strong upregulation of CD86, B7-H1 and B7-DC but only slightly upregulated MHC II, CD40 and CD80 | marker expression on DCs that captured dying tumor cells (CD11c+ CFSE+) (spleen CD11c+ DCs; co-injection with irradiated J558− cells i.v.): strongly upregulated the expression of antigen presenting and costimulatory molecules | maturation of total CD11c+ splenic DCs (MHC II, CD80, CD86, B7-H1, B7-DC) (spleen CD11c+ DCs; co-injection with irradiated J558− cells i.v., 5 hours): resulted in the maturation of the total CD11c^+ DC population | DC maturation in Jα281−/− mice (spleen CD11c+ DCs; mice lacking NKT cells): did not mature | phenotypic changes of DC maturation (CD40, CD86, MHC class II, B7-H1, B7-DC up, CD119 down) (spleen CD11c+ DCs; mouse, in vivo): induced similar phenotypic changes of maturation | induction of splenic DC maturation in vivo (spleen CD11c+ DCs; surface activation markers): rapid and efficient inducers of splenic DC maturation in vivo

From patent US20090117089A1, “GLYCOLIPIDS AND ANALOGUES THEREOF AS ANTIGENS FOR NK T CELLS” (The Rockefeller University, priority 2005, published 2009)
